Reference: ChEMBL document CHEMBL3217628, “Benzisothiazolones arrest the cell cycle at the G2/M phase and induce apoptosis in HeLa cells” (Medchemcomm, 2013)
One block for each compound: values may come before it. The source made the active and inactive calls. The calls are words filed in the database; no cut-off is given here.

Legend:
HeLa [1] = assay: Cytotoxicity against human HeLa cells after 72 hrs by MTT assay; type: functional, cell-based
SiHa = assay: Cytotoxicity against human SiHa cells after 72 hrs by MTT assay; type: functional, cell-based
SW480 = assay: Cytotoxicity against human SW480 cells after 72 hrs by MTT assay; type: functional, cell-based; settings: SW480, 72 h
[2] = Solubility of the compound in DMSO; type: physicochemical
HeLa [3] = assay: Induction of apoptosis in human HeLa cells assessed as disruption of mitochondrial membrane potential at […] after 72 hrs using JC1 dye by fluorescence microscope analysis; type: functional, cell-based
HeLa [4] = assay: Induction of apoptosis in human HeLa cells assessed as cleaved caspase-3 level at […] after 48 hrs by Western blot analysis; type: functional, cell-based
HeLa [5] = assay: Induction of apoptosis in human HeLa cells assessed as formation of DNA fragmentation at 50 uM after 72 hrs using ethidium bromide staining by 2% agarose gel electrophoresis assay; type: functional, cell-based
HeLa [6] = assay: Cell cycle arrest in human HeLa cells assessed as apoptotic cells at 50 uM after 48 hrs using propidium iodide staining by flow cytometry (reference value: 7.3%); type: functional
HeLa [7] = assay: Induction of apoptosis in human HeLa cells assessed as disruption of mitochondrial membrane potential at 50 uM after 72 hrs using JC1 dye by fluorescence microscope analysis; type: functional, cell-based
HeLa [8] = assay: Cell cycle arrest in human HeLa cells assessed as accumulation at G2/M phase at 50 uM after 48 hrs using propidium iodide staining by flow cytometry (reference value: 14.3%); type: functional

Structure (SMILES): C[C@H](c1ccccc1)n1sc2ccccc2c1=O
IC50 (HeLa [1]): 43.7 µM
IC50 (SiHa): 32.3 µM
IC50 (SW480): 43.1 µM

solubility [2]: soluble
Structure (SMILES): COc1ccc(-n2sc3ccccc3c2=O)cc1

Structure (SMILES): CC(C)Cn1sc2ccccc2c1=O
IC50 (HeLa [1]): 31.8 µM
IC50 (SiHa): 38.1 µM
IC50 (SW480): 47.8 µM

Structure (SMILES): CC(=O)O[C@H]1C(=O)[C@@]2(C)[C@H]([C@H](OC(=O)c3ccccc3)[C@]3(O)C[C@H](OC(=O)[C@H](O)[C@@H](NC(=O)c4ccccc4)c4ccccc4)C(C)=C1C3(C)C)[C@]1(OC(C)=O)CO[C@@H]1C[C@@H]2O
Activity (HeLa [3]): Active
Activity (HeLa [4]): Active

Structure (SMILES): C[C@@H](c1ccccc1)n1sc2ccccc2c1=O
IC50 (HeLa [1]): 30.9 µM
IC50 (SiHa): 35.9 µM
IC50 (SW480): 41.8 µM

Structure (SMILES): O=c1c2ccccc2sn1C1CCCCC1
Activity (HeLa [5]): Active
Activity (HeLa [6]): 23.4%
Activity (HeLa [7]): Active
IC50 (HeLa [1]): 24.8 µM
IC50 (SiHa): 48.3 µM
Activity (HeLa [8]): 26.6%
IC50 (SW480): 48.8 µM

solubility [2]: soluble
Structure (SMILES): COc1ccccc1-n1sc2ccccc2c1=O

Structure (SMILES): O=C(c1ccccc1)c1cc(Cl)ccc1-n1sc2ccccc2c1=O
solubility [2]: soluble

Structure (SMILES): Cc1ccc(-n2sc3ccccc3c2=O)cc1
solubility [2]: soluble

solubility [2]: soluble
Structure (SMILES): O=c1c2ccccc2sn1-c1ccccc1

Structure (SMILES): O=c1c2ccccc2sn1Cc1ccc2c(c1)OCO2
IC50 (HeLa [1]): 37.3 µM
IC50 (SiHa): 29.3 µM
IC50 (SW480): 46.3 µM

solubility [2]: soluble
Structure (SMILES): O=c1c2ccccc2sn1-c1ccccc1[N+](=O)[O-]
